Test results: patent US20040086901A1, “Database for analyzing gene function and method of analyzing gene function by dspa” (priority 2000, published 2004)

Legend:
Type in all cases: cell-based, mouse
[1] = tested on: NIH3T3 cells overexpressing cAMP-PK-CS; assay: MTT cell viability, cAMP-PK-CS overexpressing cells vs parental line; conditions: cAMP-PK-CS high-expressing cells / parental cell line, 3 to 4 days
How it was run: (§1)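 MTT viability of transfected versus parental NIH3T3 after 3–4 days in twofold drug dilution series; values are log ratios of IC40.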

[2] = tested on: NIH3T3 cells overexpressing DAN; assay: MTT cell viability, DAN overexpressing cells vs parental line; conditions: DAN high-expressing cells / parental cell line, 3 to 4 days
How it was run: (§2)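 Stable NIH3T3 transfectants (cDNA in pRc-CMV-type vector, G-418-selected, high expressers picked by Western blot) and parental cells were seeded at 1×10^5 cells/ml into twofold serial drug dilutions and grown 3–4 days. MTT formazan was read at 574/655 nm, and log ratios of IC40 values were derived.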

[3] = tested on: NIH3T3 cells overexpressing C/EBPa; assay: MTT cell viability, C/EBPa overexpressing cells vs parental line; conditions: C/EBPa high-expressing cells / parental cell line, 3 to 4 days
How it was run: as §1

[4] = tested on: NIH3T3 cells overexpressing calpastatin; assay: MTT cell viability, calpastatin overexpressing cells vs parental line; conditions: calpastatin high-expressing cells / parental cell line, 3 to 4 days
How it was run: as §2

[5] = tested on: NIH3T3 cells overexpressing PDGF-R-Del; assay: MTT cell viability, PDGF-R-Del overexpressing cells vs parental line; conditions: PDGF-R-Del high-expressing cells / parental cell line, 3 to 4 days
How it was run: as §2

[6] = tested on: NIH3T3 cells overexpressing RhoA; assay: MTT cell viability, RhoA overexpressing cells vs parental line; conditions: RhoA high-expressing cells / parental cell line, 3 to 4 days
How it was run: as §2

[7] = tested on: NIH3T3 cells overexpressing cystatin alpha; assay: MTT cell viability, cystatin alpha overexpressing cells vs parental line; conditions: cystatin alpha high-expressing cells / parental cell line, 3 to 4 days
How it was run: as §2

[8] = tested on: NIH3T3 cells overexpressing Bax; assay: MTT cell viability, Bax overexpressing cells vs parental line; conditions: 3 to 4 days
How it was run: as §1

[9] = tested on: NIH3T3 cells overexpressing T.Tn; assay: MTT cell viability, T.Tn overexpressing cells vs parental line; conditions: T.Tn high-expressing cells / parental cell line, 3 to 4 days
How it was run: as §1

[10] = tested on: NIH3T3 cells, TPA (PKC downreg); assay: MTT cell viability, TPA (PKC downreg) cells vs parental line; conditions: 3 to 4 days
[11] = tested on: NIH3T3 cells overexpressing STAT1; assay: MTT cell viability, STAT1 overexpressing cells vs parental line; conditions: STAT1 high-expressing cells / parental cell line, 3 to 4 days
How it was run: as §1

[12] = tested on: NIH3T3 cells overexpressing JNK-DN; assay: MTT cell viability, JNK-DN overexpressing cells vs parental line; conditions: JNK-DN high-expressing cells / parental cell line, 3 to 4 days
How it was run: as §2

[13] = tested on: NIH3T3 cells overexpressing erbB2; assay: MTT cell viability, erbB2 overexpressing cells vs parental line; conditions: erbB2 high-expressing cells / parental cell line, 3 to 4 days
How it was run: as §2

[14] = tested on: NIH3T3 cells overexpressing p33/ING1; assay: MTT cell viability, p33/ING1 overexpressing cells vs parental line; conditions: p33/ING1 high-expressing cells / parental cell line, 3 to 4 days
How it was run: as §2

[15] = tested on: NIH3T3 cells overexpressing CP-antisense; assay: MTT cell viability, CP-antisense cells vs parental line; conditions: 3 to 4 days
How it was run: as §2

[16] = tested on: NIH3T3 cells overexpressing PKCepsilon-KN; assay: MTT cell viability, PKCepsilon-KN overexpressing cells vs parental line; conditions: 3 to 4 days
How it was run: as §1

[17] = tested on: NIH3T3 cells overexpressing TK; assay: MTT cell viability, TK overexpressing cells vs parental line; conditions: TK high-expressing cells / parental cell line, 3 to 4 days
How it was run: as §2

[18] = tested on: NIH3T3 cells overexpressing C/EBPb; assay: MTT cell viability, C/EBPb overexpressing cells vs parental line; conditions: C/EBPb high-expressing cells / parental cell line, 3 to 4 days
Method: With regard to the function-known genes, the genes shown in the left column of Table 2 were used. With regard to the drugs, those shown in Table 1 were dissolved in DMSO to an extent of 100-fold of the maximum concentration for the search of the drugs and used. With regard to the cells, incubated NIH3T3 or ras-NIH3T3 cells were used.
Full-length cDNA of each function-known genes was incorporated into an expression vector (pRc-CMV, etc.) and transfected into NIH3T3 cells by a common method. Transformed cells were isolated using the resistance to G-418 as an index and the expression of the transfected gene in each cell was investigated by Western blotting method to select a highly expressing line.
Cell viabilities were measured according to the following procedures.
1) From the 2nd to the 11th rows of a 96-well plate were filled with DMEM (50 μl). The 12th row was filled with 100 μl of DMEM.
2) The 1st row was filled with 98 μl of DMEM.
3) Drugs (2 μl each) were added into the 1st row.
4) Continuous double-dilution was conducted from the 1st to the 9th rows. Fifty μl were taken out from the 9th row and discarded. The plate was preserved in a CO2 incubator.
5) Cells (each high-expressing cells and the parental cell line) were detached from the medium using a trypsin solution, suspended in 10% CS-DMEM and transferred to a test tube and cell numbers (cell/ml) were counted.
6) The cells were diluted to a concentration of 1×10^5 cells/ml, and 50 μl of the cell suspension were added to the 1st to the 11th rows of the plate followed by gently stirring.
7) The plate was transferred to the CO2 incubator and incubated for 3 to 4 days.
8) MTT (5 mg/ml in PBS) (10 μl) was added to the 1st to the 12th rows of the plate and incubated in the CO2 incubator at 37° C. for 4 hours.
9) A reaction stop solution (0.04N HCl in isopropanol) (150 μl) was added followed by mixing well and being allowed to stand at room temperature for about 2 hours.
10) Coloration of formazan which was a metabolite of the MTT dye was measured using a microplate reader. The measurement wavelength was 574 nm and the reference wavelength was 655 nm. The 10th and the 11th rows of the plate were 100% controls and the 12th row was a 0% control.
As an index for the sensitivity of highly gene-expressing cells and the parental cell line to various drugs, each of the IC40 values thereof was specified and ratios of the IC40 values were calculated. […] After that, logarithmic values of ratios of IC40 values were calculated from each gene.

[19] = tested on: NIH3T3 cells overexpressing v-src; assay: MTT cell viability, v-src overexpressing cells vs parental line; conditions: v-src high-expressing cells / parental cell line, 3 to 4 days
How it was run: as §2

[20] = Bax (first of two Bax lines) high-expressing cells / parental cell line
[21] = Bax (second of two Bax lines) high-expressing cells / parental cell line
[22] = PKCepsilon-KN (first of two lines) high-expressing cells / parental cell line
[23] = PKCepsilon-KN (second of two lines) high-expressing cells / parental cell line

SMILES | logarithmic value of ratio of IC40 values [1] | logarithmic value of ratio of IC40 values [2] | logarithmic value of ratio of IC40 values [3] | logarithmic value of ratio of IC40 values [4] | logarithmic value of ratio of IC40 values [5] | logarithmic value of ratio of IC40 values [6] | logarithmic value of ratio of IC40 values [7] | logarithmic value of ratio of IC40 values [8, 20] | logarithmic value of ratio of IC40 values [8, 21] | logarithmic value of ratio of IC40 values [9] | logarithmic value of ratio of IC40 values [10] | logarithmic value of ratio of IC40 values [11] | logarithmic value of ratio of IC40 values [12] | logarithmic value of ratio of IC40 values [13] | logarithmic value of ratio of IC40 values [14] | logarithmic value of ratio of IC40 values [15] | logarithmic value of ratio of IC40 values [16, 22] | logarithmic value of ratio of IC40 values [16, 23] | logarithmic value of ratio of IC40 values [17] | logarithmic value of ratio of IC40 values [18] | other results
O=c1c(-c2ccc(O)cc2)coc2cc(O)cc(O)c12 [Genistein, genistein] | 0.00 | 0.20 | −0.43 | 0.127 | 0.33 | 0.31 | 0.28 | 0.20 | 0.38 | −0.25 | −0.09 | 0.10 | −0.10 | −0.60 | 0.78 | 0.00 | 0.00 | 0.19 | 0.08 | 0.19 | logarithmic value of ratio of IC40 values [19]: −0.60
CO[C@H]1[C@@H](OC)C[C@H](C)[C@@H](OC)C2=CC(=O)C=C(NC(=O)/C(C)=C/C=C\[C@H](OC)[C@@H](OC(N)=O)/C(C)=C/[C@@H]1C)C2=O [HMA, herbimycin A] | 0.12 | −0.05 | 0.00 | −0.14 | 0.00 | 0.13 | −0.12 | −0.05 | 0.15 | 0.00 | −0.07 | −0.05 | −0.14 | −0.55 | 0.38 | −0.10 | −0.11 | 0.09 | 0.00 | 0.45 | logarithmic value of ratio of IC40 values [19]: −0.35
COC(=O)[C@@]1(O)C[C@H]2O[C@]1(C)n1c3ccccc3c3c4c(c5c6ccccc6n2c5c31)C(=O)NC4 [K252a] | −0.04 | −0.46 | −0.48 | 0.1 | 0.10 | 0.10 | −0.10 | −0.11 | 0.60 | 0.00 | −0.13 | 0.15 | −0.28 | 0.15 | 0.28 | 0.00 | 0.00 | −0.09 | 0.23 | 0.25 | logarithmic value of ratio of IC40 values [19]: −0.22
CCCC[C@@H](C)/C=C(C)/C=C(\C)C(=O)NC1=C[C@@](O)(/C=C/C=C/C=C/C(=O)NC2=C(O)CCC2=O)[C@@H]2O[C@@H]2C1=O [Manumycin, manumycin] | 0.08 | 0.00 | 0.00 | 0.02 | 0.09 | −0.04 | −0.19 | −0.07 | 0.06 | 0.28 | 0.03 | 0.00 | −0.05 | −0.05 | 0.18 | 0.00 | −0.11 | 0.16 | 0.00 | 0.47 | logarithmic value of ratio of IC40 values [19]: 0.00
